# According to patent US20060025474A1, “Bisphenyl compounds useful as vitamin D3 receptor agonists” (priority 2004, published 2006):
# System: ECAC2 mRNA in Caco-2 cells
# Assay type: cell-based
# Method: The mRNA Expression Assay of ECAC2 in Caco-2 Cells
# The dispersed cells were plated in 48-well plate at a concentration of 6.3×10^4 cells/well and incubated for 4 days at 37° C. The culture medium (Dulbecco's Modified Eagle Medium (D-MEM) without NaHCO3 with 44 mM NaHCO3, 1 mM non-essential amino acids, and 2 mM L-glutamine, 90%; fetal bovine serum, 10%) was then replaced with the same medium containing various concentrations of LG190178 (the compound disclosed in WO00/10958 and the corresponding U.S. Pat. No. 6,218,430 B1) or the compounds of the present invention, and cells were cultured for 1 day at 37° C. The culture medium containing the compounds was changed twice per day.
# Total RNA Isolation from Caco-2 Cell
# Total RNA was isolated from Caco-2 cell following ABI PRISM™ 6100 Nucleic Acid PrepStation protocol from Applied Biosystems.
# Real Time RT-PCR Assay of ECAC2
# ECAC2 mRNA expression was determined using TaqMan One-step RT-PCR Master Mix Reagents Kit and PRISM7000 systems from Applied Biosystems.
# Primer information and cycle conditions are 1)ECAC2, forward 5′-[…]-3′, reverse 5′-GTCCTCTGTCTGGMGATGA-3′, Taqman probe 5′-[…]-3′, 55 cycles, annealing temperature (Ta)=60° C.; 2)GAPDH, forward 5′-GMGGTGMGGTCGGAGTC-3′, reverse 5′-GMGATGGTGATGGGATTTC-3′, Taqman probe 5′-[…]-3′, 55 cycles, Ta=60° C. ECAC2 mRNA values were normalized for the expression of GAPDH mRNA within each sample.
# Comparison of ECAC2 mRNA Value
# The EC50 values of ECAC2 mRNA values were analyzed by Emax models. The ECAC2 mRNA ratio was calculated as the ratio of the EC50 value of the compounds to that of LG190178. ECAC2 is a channel-like transporter mediating intestinal calcium absorption. It is described in J Biol Chem. Aug. 6, 1999; 274(32):22739-46 for example.
row,Compound,ECaC-2 mRNA induction activity in Caco-2 cells
1,"CCC(O)(/C=C/c1ccc(C(CC)(CC)c2cc(C)c(OC[C@@H](O)CCC(=O)O)c(C)c2)cc1C)CC [Example 167, (S)-5-(4-{1-Ethyl-1-[4-((E)-3-ethyl-3-hydroxy-pent-1-enyl)-3-methyl-phenyl]-propyl}-2,6-dimethyl-phenoxy)-4-hydroxy-pentanoic acid]",323%
2,"CCC(CC)(c1ccc(C#CC(O)C(C)(C)C)c(C)c1)c1ccc(OC[C@@H](O)CCC(=O)O)c(C)c1 (stereo partly drawn) [Example 27, 5-(4-{1-ethyl-1-[4-(3-hydroxy-4,4-dimethyl-pent-1-ynyl)-3-methyl-phenyl]-propyl}-2-methyl-phenoxy)-4(S)-hydroxy-pentanoic acid]",114%
3,"CCC(CC)(c1ccc(/C=C/C2(O)CCCC2)c(C)c1)c1ccc(OCCCCC(=O)O)c(C)c1 [Example 86, 5-[4-(1-ethyl-1-{4-[(E)-2-(1-hydroxy-cyclopentyl)-vinyl]-3-methyl-phenyl}-propyl)-2-methyl-phenoxy]-pentanoic acid]",289%
4,"CCc1cc(C(CC)(CC)c2ccc(C(=O)N[C@@H](C)C(=O)O)s2)ccc1OCC(C)(O)C(C)(C)C (single isomer, unassigned) [Compound D, reference compound]",14%
5,"CCc1cc(C(CC)(CC)c2ccc(C(=O)N[C@H](C)C(=O)O)s2)ccc1OCC(C)(O)C(C)(C)C (single isomer, unassigned) [Compound A, reference compound]",123%
6,"CCC(CC)(c1ccc(/C=C/C(O)C(C)(C)C)c(C)c1)c1ccc(OC[C@@H](O)CO)c(C)c1 (stereo partly drawn) [Example 67, 3-(4-{1-ethyl-1-[4-((E)-3-hydroxy-4,4-dimethyl-pent-1-enyl)-3-methyl-phenyl]-propyl}-2-methyl-phenoxy)-propane--1,2(S)-diol]",860%
7,"CCC(CC)(c1ccc(C#CC(O)(C(F)(F)F)C(F)(F)F)c(C)c1)c1ccc(OC[C@@H]2CCCC(=O)O2)c(C)c1 [Example 57, (S)-6-(4-{1-ethyl-1-[3-methyl4-(4,4,4-trifluoro-3-hydroxy-3-trifluoromethyl-but-1-ynyl)-phenyl]-propyl}-2-methyl-phenoxymethyl)-tetrahydro-pyran-2-one]",24%
8,"C=C1/C(=C\C=C2/CCC[C@]3(C)[C@@H]([C@H](C)CCCC(C)(C)O)CC[C@@H]23)C[C@@H](O)C[C@@H]1O [1,25(OH)2D3, reference compound]",556%
9,"CCC(CC)(c1ccc(/C=C/C2(O)CCCCC2)c(C)c1)c1ccc(OCCCCC(=O)O)c(C)c1 [Example 88, 5-[4-(1-ethyl-1-{4-[(E)-2-(1-hydroxy-cyclohexyl)-vinyl]-3-methyl-phenyl}-propyl)-2-methyl-phenoxy]-pentanoic acid]",845%
10,"CCC(O)(/C=C/c1ccc(C(CC)(CC)c2ccc(OC[C@H]3CCCC(=O)O3)c(C)c2)cc1C)CC [Example 190, 6(R)-(4-{1-Ethyl-1-[4-((E)-3-ethyl-3-hydroxy-pent-1-enyl)-3-methyl-phenyl]-propyl}-2-methyl-phenoxymethyl)-tetrahydro-pyran-2-one]",22%

# Results, then the compound that gave them:
row,ECaC-2 mRNA induction activity in Caco-2 cells,Compound
1,191%,"CCCc1cc(C(CC)(CC)c2ccc(OC[C@@H](O)CCC(=O)O)c(C)c2)ccc1/C=C/C(O)(CC)CC [Example 170, (S)-5-(4-{1-Ethyl-1-[4-((E)-3-ethyl-3-hydroxy-pent-1-enyl)-3-propyl-phenyl]-propyl}-2-methyl-phenoxy)4-hydroxy-pentanoic acid]"
2,161%,"CCC(CC)(c1ccc(CCC(O)(C(F)(F)F)C(F)(F)F)c(C)c1)c1ccc(OC[C@@H](O)CCC(=O)O)c(C)c1 [Example 31, (S)-5-(4-{1-ethyl-1-[3-methyl-4-(4,4,4-trifluoro-3-hydroxy-3-trifluoromethyl-butyl)-phenyl]-propyl}-2-methyl-phenoxy)-4-hydroxy-pentanoic acid]"
3,399%,"CCC(CC)(c1ccc(C#CC(O)(C(F)(F)F)C(F)(F)F)c(C)c1)c1ccc(CCC(=O)O)c(C)c1 [Example 106, 3-(4-{1-ethyl-1-[3-methyl-4-(4,4,4-trifluoro-3-hydroxy-3-trifluoromethyl-but-1-ynyl)-phenyl]-propyl}-2-methyl-phenyl)-propionic acid]"
4,226%,"CCC(CC)(c1ccc(/C=C/C(O)(C(F)(F)F)C(F)(F)F)c(C)c1)c1ccc(OCCCCCC(=O)O)c(C)c1 [Example 92, 6-(4-{1-Ethyl-1-[3-methyl-4-((E)4,4,4-trifluoro-3-hydroxy-3-trifluoromethyl-but-1-enyl)-phenyl]-propyl}-2-methyl-phenoxy)-hexanoic acid]"
5,4760%,"CCC(CC)(c1ccc(/C=C/C(O)(C(F)(F)F)C(F)(F)F)c(C)c1)c1ccc(OC[C@@H](O)CCCO)c(C)c1 [Example 156, (S)-5-(4-{1-Ethyl-1-[3-methyl4-((E)4,4,4-trifluoro-3-hydroxy-3-trifluoromethyl-but-1-enyl)-phenyl]-propyl}-2-methyl-phenoxy)-pentane-1,4-diol]"
6,276%,"CCC(CC)(c1ccc(/C=C/C(O)(C(F)(F)F)C(F)(F)F)c(C)c1)c1ccc(OC[C@@H](O)CCCC(=O)O)c(C)c1 [Example 56, (S)-6-(4-{1-Ethyl-1-[3-methyl-4-((E)4,4,4-trifluoro-3-hydroxy-3-trifluoromethyl-but-1-enyl)-phenyl]-propyl}-2-methyl-phenoxy)-5-hydroxy-hexanoic acid]"
7,545%,"CCC(CC)(c1ccc(CCC(O)C(C)(C)C)c(C)c1)c1ccc(OC[C@@H](O)CCCC(=O)O)c(C)c1 (stereo partly drawn) [Example 187, 6-(4-{1-Ethyl-1-[4-(3-hydroxy-4,4-dimethyl-pentyl)-3-methyl-phenyl]-propyl}-2-methyl-phenoxy)-5(S)-hydroxy-hexanoic acid]"
8,36%,"CCC(O)(/C=C/c1ccc(C(CC)(CC)c2ccc(OC[C@@H](O)CCC(=O)O)c(C)c2)cc1C)CC [Example 1, (S)-5-(4-{1-ethyl-1-[4-((E)-3-ethyl-3-hydroxy-pent-1-enyl)-3-methyl-phenyl]-propyl}-2-methyl-phenoxy)-4-hydroxy-pentanoic acid]"
9,292%,"CCC(CC)(c1ccc(C#CCCCC(=O)O)c(C)c1)c1ccc(C#CC(O)(C(F)(F)F)C(F)(F)F)c(C)c1 [Example 192, 6-(4-{1-Ethyl-1-[3-methyl-4-(4,4,4-trifluoro-3-hydroxy-3-trifluoromethyl-but-1-ynyl)-phenyl]-propyl}-2-methyl-phenyl)-hex-5-ynoic acid]"
10,2017%,"CCC(O)(/C=C/c1ccc(C(CC)(CC)c2ccc(OC[C@@H](O)CCC(=O)O)cc2)cc1C)CC [Example 165, (S)-5-(4-{1-Ethyl-1-[4-((E)-3-ethyl-3-hydroxy-pent-1-enyl)-3-methyl-phenyl]-propyl}-phenoxy)4-hydroxy-pentanoic acid]"
11,662%,"CCC(CC)(c1ccc(/C=C/C(O)(C(F)(F)F)C(F)(F)F)c(C)c1)c1ccc(OC[C@@H]2CCCC(=O)O2)c(C)c1 [Example 55, (S)-6-(4-{1-ethyl-1-[3-methyl-4-((E)-4,4,4-trifluoro-3-hydroxy-3-trifluoromethyl-but-1-enyl)-phenyl]-propyl}-2-methyl-phenoxymethyl)-tetrahydro-pyran-2-one]"
12,1662%,"CCC(CC)(c1ccc(C#CC(O)(C(F)(F)F)C(F)(F)F)c(C)c1)c1ccc(OC[C@@H](O)CCCO)c(C)c1 [Example 153, (S)-5-(4-{1-Ethyl-1-[3-methyl-4-(4,4,4-trifluoro-3-hydroxy-3-trifluoromethyl-but-1-ynyl)-phenyl]-propyl}-2-methyl-phenoxy)-pentane-1,4-diol]"
13,355%,"CCC(CC)(c1ccc(C#CC(O)(C(F)(F)F)C(F)(F)F)c(C)c1)c1ccc(OC[C@@H](O)CO)c(C)c1 [Example 68, 3-(4-{1-Ethyl-1-[3-methyl4-(4,4,4-trifluoro-3-hydroxy-3-trifluoromethyl-but-1-ynyl)-phenyl]-propyl}-2-methyl-phenoxy)-propane-1,2(S)-diol]"
14,534%,"CCC(CC)(c1ccc(C#CC(O)(C(F)(F)F)C(F)(F)F)c(C)c1)c1ccc(OCC(CO)CO)c(C)c1 [Example 77, 2-(4-{1-ethyl-1-[3-methyl-4-(4,4,4-trifluoro-3-hydroxy-3-trifluoromethyl-but-1-ynyl)-phenyl]-propyl}-2-methyl-phenoxymethyl)-propane-1,3-diol]"
